Laboratory results as given in EP4624471A1, “PKMYT1 INHIBITOR, PREPARATION METHOD THEREFOR, AND PHARMACEUTICAL COMPOSITION AND USE THEREOF” (Shanghai Qilu Pharmaceutical Research and Development …, priority 2022, dated 2024).
Read-outs that look alike come from different tables or passages of the source.

Assays:
HCC1569 cells = assay: Cytostatic activity, CTG assay (HCC1569); assay type: cell-based; conditions: 5 days
Description: Biological test example 2. Cytostatic activity of compounds of the present disclosure
CTG assay (HCC1569) was used to verify the biological activity of some of the example compounds of the present disclosure.
HCC1569 cells were purchased from ATCC (Cat. No.: CRL-2330) and cultured in a 37°C, 5% CO2 cell culture incubator. HCC1569 complete medium: RPMI-1640 liquid medium (Cat. No.: Gibico 11875-093), 20% FBS (Cat. No.: Gibico 10099-141), 1% Pen Strep (Cat. No.: Gibico 15070-063).
HCC1569 cells in a 75 cm^2 culture flask were digested with 2 mL of trypsin for 2-3 min, and then neutralized with 2 mL of 1640 complete medium. The mixture was centrifuged at 1200 rpm for 5 minutes. Cells were resuspended using 4 mL of 1640 complete medium. 500 µL of cell suspension was taken for cell counting using Vi-CELL-XR cell counter.
Using a Multidrop instrument, the HCC1569 cells were seeded in a 384-well plate at a density of 1000 cells per well (50 µL 1640 Growth Media) and administrated 24 hours later.
Using an ultra-micro pipette, the test compound (concentration: 3.33 mM, dissolved in DMSO) was diluted with 10 µM as the highest starting concentration, and then sequentially diluted in 10 gradients at a ratio of 1:3 (10000 nM, 3333 nM, 1111 nM, 370 nM, 123 nM, 41 nM, 13.7 nM, 4.6 nM, 1.5 nM, 0.5 nM) for administration treatment, with two duplicate wells for each concentration; 14 wells for positive and negative controls were set, with the positive control being the duplicate wells of 10 µM positive compound and the negative control being the duplicate wells of DMSO.
After the administration was completed, the cells were placed in a 37°C incubator for further culture for 5 days. After 5 days, 25 µL of CTG buffer was added to each well for CTG assay detection, and analyzed using a microplate reader. CTG readings were analyzed.
a = CTG value (highest concentration), b = CTG value (blank well), x = CTG value(test well).
IC50 was calculated using GraphPad PRISM 8.
Log10 (A compound concentration) was used for statistical calculation. (2) The data were input into GraphPad PRISM 8, and Analysis was selected. (3) Nonlinear regression (curve fit) was selected. (4) Log (inhibitor) vs. response-Variable slope was selected. (5) The calculation formula was selected, and the calculation was carried out according to the following formula: Y = Bottom + (Top-Bottom)/(1+10^((LogIC50-X)*HillSlope)), X: logarithm of dose or concentration, Y: response value, Top and Bottom: peak and bottom values. (6) The data were fitted to obtain IC50 values. (7) The fitting conditions were adjusted according to the specific data. Appropriate Constraint conditions were adjusted for Bottom, Top, and HillSlope. The curve that best fits the actual situation has been reached.

PKMYT1 enzyme = biological target: T1, PKMYT1 enzyme (Homo sapiens, UniProt Q99640); assay: PKMYT1 enzyme inhibition activity, ADP-GLO method; assay type: biochemical
T1 construct: purchased Thermo Scientific A33387
T1 sequence (Q99640 1-499): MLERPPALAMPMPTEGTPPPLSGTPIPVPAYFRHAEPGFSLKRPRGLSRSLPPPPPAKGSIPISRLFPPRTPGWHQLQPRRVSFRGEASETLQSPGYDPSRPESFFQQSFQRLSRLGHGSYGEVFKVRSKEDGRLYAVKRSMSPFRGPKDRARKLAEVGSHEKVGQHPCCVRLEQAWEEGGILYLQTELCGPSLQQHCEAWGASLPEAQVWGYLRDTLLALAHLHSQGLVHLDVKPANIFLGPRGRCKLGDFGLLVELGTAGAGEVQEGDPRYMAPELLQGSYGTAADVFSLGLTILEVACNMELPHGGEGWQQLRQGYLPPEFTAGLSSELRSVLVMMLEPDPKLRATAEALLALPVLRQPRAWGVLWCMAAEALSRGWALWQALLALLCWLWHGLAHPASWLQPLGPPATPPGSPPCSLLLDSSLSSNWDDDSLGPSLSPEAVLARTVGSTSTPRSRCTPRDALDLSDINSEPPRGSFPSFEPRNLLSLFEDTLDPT

[1] = PKMYT1 enzyme 10 nM, ATP 5 µM, 37°C 90 minutes; read-out: ADP-GLO IC50

Structure (SMILES) | IC50 (PKMYT1 enzyme; [1]) [µM] | IC50 (HCC1569 cells; Homo sapiens, HCC1569, 120 h) [µM] | further results
Cc1cc2c(C(N)=O)c(N)n(-c3c(C)c(O)cc(F)c3C)c2nc1C (atropisomer, axis not shown) [Example 21] | 0.00413 | – | IC50 (HCC1569 cells): 0.02 µM
Cc1nc(C2CC2)c2c(C(N)=O)c(N)n(-c3c(C)ccc(O)c3C)c2n1 (atropisomer, axis not shown) [Example 62.2] | 0.0144 | 0.06 | –
Cc1c(O)cc(F)c(C)c1-n1c(N)c(C(N)=O)c2cc(C(C)C)cnc21 (atropisomer, axis not shown) [Example 113.2] | 0.0041 | 0.003 | –
Cc1c(O)cc(F)c(C)c1-n1c(N)c(C(N)=O)c2cc(-c3ccccc3)cnc21 (atropisomer, axis not shown) [Example 119.1] | 0.00466 | 0.018 | –
CCc1cc2c(C(N)=O)c(N)n(-c3c(C)c(O)cc(F)c3C)c2nc1C (atropisomer, axis not shown) [Example 132.1] | 0.00623 | – | IC50 (HCC1569 cells): 0.011 µM
CCc1cc2c(C(N)=O)c(N)n(-c3c(C)c(O)cc(F)c3C)c2nc1C (atropisomer, axis not shown) [Example 132] | 0.00892 | – | IC50 (HCC1569 cells): 0.03 µM
C=C(C)c1cnc2c(c1)c(C(N)=O)c(N)n2-c1c(C)c(O)cc(F)c1C (atropisomer, axis not shown) [Example 133.1] | 0.00243 | – | IC50 (HCC1569 cells): 0.012 µM
C=C(C)c1cnc2c(c1)c(C(N)=O)c(N)n2-c1c(C)c(O)cc(F)c1C (atropisomer, axis not shown) [Example 133] | 0.00662 | 0.018 | –
Cc1cc(F)c(O)c(C)c1-n1c(N)c(C(N)=O)c2cc(C3CC3)c(C)nc21 (atropisomer, axis not shown) [Example 141] | 0.0058 | 0.076 | –
C=Cc1cc2c(C(N)=O)c(N)n(-c3c(C)cc(F)c(O)c3C)c2nc1C (atropisomer, axis not shown) [Example 142] | 0.0207 | 0.088 | –
Cc1cc(F)c(O)c(C)c1-n1c(N)c(C(N)=O)c2cc(C(C)C)c(C)nc21 (atropisomer, axis not shown) [Example 159.1] | 0.00442 | 0.031 | –
Cc1cc(F)c(O)c(C)c1-n1c(N)c(C(N)=O)c2cc(N(C)C)c(C)nc21 (atropisomer, axis not shown) [Example 169.1] | 0.00631 | 0.078 | –
Cc1cc(F)c(O)c(C)c1-n1c(N)c(C(N)=O)c2cc(C(C)C)cnc21 (atropisomer, axis not shown) [Example 170.2] | 0.01 | 0.08 | –
Cc1cc(F)c(O)c(C)c1-n1c(N)c(C(N)=O)c2cc(N3CCC3)c(C)nc21 (atropisomer, axis not shown) [Example 173.2] | 0.0045 | 0.065 | –
Cc1cc(F)c(O)c(C)c1-n1c(N)c(C(N)=O)c2c3c(c(C)nc21)CCC3 (atropisomer, axis not shown) [Example 176.2] | 0.0102 | 0.068 | –
Cc1nc2c(cc1Br)c(C(N)=O)c(N)n2-c1c(C)c(O)cc(F)c1C (racemic) [Example 104] | 0.00321 | 0.015 | –
C=Cc1cc2c(C(N)=O)c(N)n(-c3c(C)c(O)cc(F)c3C)c2nc1C (racemic) [Example 111] | 0.00357 | 0.013 | –
Cc1c(O)cc(F)c(C)c1-n1c(N)c(C(N)=O)c2cc(C(C)C)cnc21 (racemic) [Example 113] | 0.00833 | 0.018 | –
Cc1c(O)cc(F)c(C)c1-n1c(N)c(C(N)=O)c2cc(-c3ccnn3C)cnc21 (racemic) [Example 118] | 0.0041 | 0.065 | –
Cc1cc2c(C(N)=O)c(N)n(-c3c(C)c(O)cc(F)c3C)c2nc1C(C)C [Example 139] | 0.143 | – | –
CCc1cnc2c(c1)c(C(N)=O)c(N)n2-c1c(C)cc(F)c(O)c1C [Example 140] | 0.00773 | – | –
Cc1cc(F)c(O)c(C)c1-n1c(N)c(C(N)=O)c2cc(C(C)(C)O)cnc21 [Example 145] | 0.0243 | – | –
COC(C)(C)c1cnc2c(c1)c(C(N)=O)c(N)n2-c1c(C)cc(F)c(O)c1C [Example 146] | 0.0352 | – | –
Cc1cc(F)c(O)c(C)c1-n1c(N)c(C(N)=O)c2cc(CC(C)C)cnc21 [Example 147] | 0.0136 | – | –
C=Cc1cnc2c(c1)c(C(N)=O)c(N)n2-c1c(C)cc(F)c(O)c1C [Example 148] | 0.00732 | – | –

Structure (SMILES) | IC50 (PKMYT1 enzyme; [1]) [µM] | IC50 (HCC1569 cells; Homo sapiens, HCC1569, 120 h) [µM] | further results
COc1cnc2c(c1)c(C(N)=O)c(N)n2-c1c(C)cc(F)c(O)c1C [Example 149] | 0.0126 | – | –
Cc1cc2c(C(N)=O)c(N)n(-c3c(C)cc(F)c(O)c3C)c2nc1CC(C)C [Example 151] | 0.0201 | – | –
C=C(C)c1nc2c(cc1C)c(C(N)=O)c(N)n2-c1c(C)cc(F)c(O)c1C [Example 152] | 0.0479 | – | –
C=C(C)c1cnc2c(c1)c(C(N)=O)c(N)n2-c1c(C)cc(F)c(O)c1C [Example 155] | 0.0232 | – | –
C=C(C)c1cc2c(C(N)=O)c(N)n(-c3c(C)cc(F)c(O)c3C)c2nc1C [Example 156] | 0.0264 | – | –
C=CCCc1cc2c(C(N)=O)c(N)n(-c3c(C)cc(F)c(O)c3C)c2nc1C [Example 157] | 0.0606 | – | –
Cc1cc(F)c(O)c(C)c1-n1c(N)c(C(N)=O)c2cc(OC(C)C)c(C)nc21 [Example 160] | 0.00785 | – | –
Cc1cc(F)c(O)c(C)c1-n1c(N)c(C(N)=O)c2cc(CO)c(C)nc21 [Example 164] | 0.00706 | – | –
Cc1cc(F)c(O)c(C)c1-n1c(N)c(C(N)=O)c2cc(C3=CCOCC3)c(C)nc21 [Example 165] | 0.0334 | – | –
COc1nc2c(cc1C)c(C(N)=O)c(N)n2-c1c(C)cc(F)c(O)c1C [Example 167] | 0.022 | – | –
Cc1cc(F)c(O)c(C)c1-n1c(N)c(C(N)=O)c2cc(S(C)(=O)=O)c(C)nc21 [Example 168] | 0.00492 | – | –
COC(C)(C)c1cc2c(C(N)=O)c(N)n(-c3c(C)cc(F)c(O)c3C)c2nc1C [Example 171] | 0.0268 | – | –
Cc1cc(F)c(O)c(C)c1-n1c(N)c(C(N)=O)c2cc(CC(F)(F)F)c(C)nc21 [Example 174] | 0.0047 | – | –
Cc1ccc(O)c(C)c1-n1c(N)c(C(N)=O)c2cc3c(nc21)OC(F)(F)O3 [Example 178] | 0.0155 | – | –
Cc1cc(F)c(O)c(C)c1-n1c(N)c(C(N)=O)c2cc3ccccc3nc21 [Example 180] | 0.0305 | – | –
Cc1c(O)cc(F)c(C)c1-n1c(N)c(C(N)=O)c2c(C)c3c(nc21)CCC3 [Example 182] | 0.0857 | – | –
Cc1cc(F)c(O)c(C)c1-n1c(N)c(C(N)=O)c2cc3c(nc21)CCC3 [Example 183] | 0.0338 | – | –
Cc1cc(F)c(O)c(C)c1-n1c(N)c(C(N)=O)c2cc3c(nc21)CCO3 [Example 184] | 0.0888 | – | –
Cc1ccc(O)c(C)c1-n1c(N)c(C(N)=O)c2c3c(c(C)nc21)OCC3 [Example 187] | 0.0435 | – | –
[2H]C([2H])([2H])c1cc(F)c(O)c(C([2H])([2H])[2H])c1-n1c(N)c(C(N)=O)c2cc(C(F)(F)F)c(C)nc21 [Example 193] | 0.00794 | – | –
Cc1cc(F)c(O)c(C)c1-n1c(N)c(C(N)=O)c2cc(C(F)F)c(C)nc21 [Example 204] | 0.0189 | – | –
Cc1ccc(O)c(C)c1-n1c(N)c(C(N)=O)c2cc3c(ccn3C)nc21 [Example 206] | – | – | IC50 (PKMYT1 enzyme; read-out: ADP-GLO IC50; PKMYT1 enzyme 10 nM, ATP 5 µM, 37°C 90 minutes): 0.00658 µM
Cc1cc(F)c(O)c(C)c1-n1c(N)c(C(N)=O)c2c3cnccc3c(C)cc21 [Example 207] | 0.00408 | – | –
Cc1c(O)cc(F)c(C)c1-n1c(N)c(C(N)=O)c2c3cnccc3c(C)cc21 [Example 208] | 0.00452 | – | –
